Columns and labels:
surinam grass = test: Test B pre/postemergence surinam grass; format: in vivo, Brachiaria decumbens
In short: (§1)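 Response is a visual 0-to-10 score relative to untreated plants, where 0 means no effect and 10 means complete control, taken twelve to sixteen days after application. Treatments went onto soil at planting and onto foliage of 1- to 4-leaf plants, using a surfactant-containing non-phytotoxic solvent.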

wheat = test: Test B pre/postemergence wheat; format: in vivo, Triticum aestivum
In short: as §1

blackgrass = test: Test B pre/postemergence blackgrass; format: in vivo, Alopecurus myosuroides
In short: as §1

morningglory = test: Test B pre/postemergence morningglory; format: in vivo, Ipomoea hederacea
In short: as §1

bedstraw = test: Test B pre/postemergence bedstraw; format: in vivo, Galium aparine; conditions: Postemergence; for Bedstraw plant response rating: scale of 0 to 10, 0 is no effect, 10 is complete control
In short: as §1

giant foxtail = test: Test B pre/postemergence giant foxtail; format: in vivo, Setaria faberii
In short: as §1

smallflower flatsedge = test: Test B flood test smallflower flatsedge; format: in vivo, Cyperus difformis
In short: (§2)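 Read-out is a visual response score from 0 (no effect) to 10 (complete control), assigned by comparison with untreated controls. Treatment was applied at the 2-leaf stage, and plants stayed in the greenhouse for twelve to sixteen days before scoring.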

cocklebur = test: Test B pre/postemergence cocklebur; format: in vivo, Xanthium strumarium
In short: as §1

soybean = test: Test B pre/postemergence soybean; format: in vivo, Glycine max
In short: as §1

corn = test: Test B pre/postemergence corn; format: in vivo, Zea mays
In short: as §1

crabgrass = test: Test B pre/postemergence crabgrass; format: in vivo, Digitaria sanguinalis
In short: as §1

purple nutsedge = test: Test B pre/postemergence purple nutsedge; format: in vivo, Cyperus rotundus
In short: as §1

pigweed = test: Test B pre/postemergence pigweed; format: in vivo, Amaranthus retroflexus
In short: as §1

bamyardgrass = test: Test B flood test barnyardgrass; format: in vivo, Echinochloa crus-galli
In short: as §2

rape = test: Test B pre/postemergence rape; format: in vivo, Brassica napus
In short: as §1

velvetleaf = test: Test B pre/postemergence velvetleaf; format: in vivo, Abutilon theophrasti
In short: as §1

wild oat = test: Test B pre/postemergence wild oat; format: in vivo, Avena fatua
In short: as §1

rice = test: Test B flood test rice; format: in vivo, Oryza sativa
In short: as §2

sugar beet = test: Test B pre/postemergence sugar beet; format: in vivo, Beta vulgaris
In short: as §1

duck salad = test: Test B flood test duck salad; format: in vivo, Heteranthera limosa
In short: as §2

[1] = Postemergence, Rate 62 g/ha, scale of 0 to 10, 0 is no effect, 10 is complete control
[2] = Postemergence, Rate 125 g/ha, scale of 0 to 10 where 0 is no effect and 10 is complete control
[3] = Postemergence, Rate 250 g/ha, scale of 0 to 10, 0 is no effect, 10 is complete control
[4] = Postemergence, Rate 500 g/ha, scale of 0 to 10 where 0 is no effect and 10 is complete control
[5] = Preemergence, Rate 62 g/ha, scale 0 to 10 (0 no effect, 10 complete control)
[6] = Preemergence, Rate 125 g/ha, scale of 0 to 10 where 0 is no effect and 10 is complete control
[7] = Preemergence, Rate 500 g/ha, scale of 0 to 10 where 0 is no effect and 10 is complete control
[8] = Rate 62 g/ha, flood test species, Pre-emergence, visual evaluation after twelve to sixteen days
[9] = Rate 125 g/ha, under heading Pre-emergence, flood test species, visual evaluation after twelve to sixteen days
[10] = Rate 250 g/ha, Pre-emergence (flood test species), scale 0 to 10, 0 is no effect, 10 is complete control
[11] = Rate 500 g/ha, Pre-emergence section of Table B, 0 to 10 scale (0 no effect, 10 complete control)

SMILES: CC(C)N(C(=O)n1oc(=O)n(CC(=O)N(C)C)c1=O)c1ccc(F)cc1 [Compound 586]
- B. signalgrass plant response rating (surinam grass; [1]): 0
- Plant response rating, B. signalgrass (surinam grass; [2]): 0
- B. signalgrass plant response rating (surinam grass; [3]): 3
- Plant response rating, B. signalgrass (surinam grass; [4]): 7
- B. signalgrass plant response rating (surinam grass; [5]): 0
- B. signalgrass plant response rating (surinam grass; [6]): 5
- B. signalgrass plant response rating (0 to 10 scale, 0 is no effect, 10 is complete control) (surinam grass; Preemergence, Rate 250 g/ha): 8
- B. signalgrass plant response rating (surinam grass; [7]): 10
- Plant response rating, Wheat (wheat; [2]): 0
- Wheat plant response rating (wheat; [3]): 0
- Plant response rating, Wheat (wheat; [4]): 0
- Wheat plant response rating (wheat; [5]): 0
- Wheat plant response rating (wheat; [6]): 0
- Wheat plant response rating (wheat; [7]): 8
- Blackgrass plant response rating (blackgrass; [1]): 0
- Plant response rating, Blackgrass (blackgrass; [2]): 1
- Blackgrass plant response rating (blackgrass; [3]): 3
- Plant response rating, Blackgrass (blackgrass; [4]): 8
- Blackgrass plant response rating (blackgrass; [5]): 3
- Blackgrass plant response rating (blackgrass; [6]): 7
- Blackgrass plant response rating (0 to 10 scale) (blackgrass; Preemergence, Rate 250 g/ha): 9
- Blackgrass plant response rating (blackgrass; [7]): 10
- Morningglory plant response rating (morningglory; [1]): 6
- Plant response rating, Morningglory (morningglory; [2]): 10
- Morningglory plant response rating (morningglory; [3]): 10
- Morningglory plant response rating (morningglory; [5]): 0
- Morningglory plant response rating (morningglory; [6]): 0
- Morningglory plant response rating (morningglory; [7]): 4
- Bedstraw plant response rating (bedstraw; Rate 62 g/ha): 0
- Plant response rating, Bedstraw (bedstraw; Rate 125 g/ha, scale of 0 to 10 where 0 is no effect and 10 is complete control): 0
- Bedstraw plant response rating (bedstraw; Rate 250 g/ha): 0
- Giant foxtail plant response rating (giant foxtail; [1]): 2
- Plant response rating, Giant foxtail (giant foxtail; [2]): 2
- Giant foxtail plant response rating (giant foxtail; [3]): 8
- Plant response rating, Giant foxtail (giant foxtail; [4]): 9
- Giant foxtail plant response rating (giant foxtail; [5]): 9
- Giant foxtail plant response rating (giant foxtail; [6]): 10
- Giant foxtail plant response rating (giant foxtail; [7]): 10
- Plant response rating, S. Flatsedge (0 to 10 scale, 0 is no effect, 10 is complete control) (smallflower flatsedge; [8]): 0
- S. Flatsedge plant response rating (0 to 10 scale, 0 is no effect, 10 is complete control) (smallflower flatsedge; [9]): 0
- S. Flatsedge plant response rating (smallflower flatsedge; [10]): 0
- S. Flatsedge plant response rating (smallflower flatsedge; [11]): 0
- Cocklebur plant response rating (cocklebur; [1]): 0
- Plant response rating, Cocklebur (cocklebur; [2]): 0
- Cocklebur plant response rating (cocklebur; [3]): 0
- Plant response rating, Cocklebur (cocklebur; [4]): 0
- Cocklebur plant response rating (cocklebur; [5]): 0
- Cocklebur plant response rating (cocklebur; [6]): 0
- Cocklebur plant response rating (0 to 10 scale) (cocklebur; Preemergence, Rate 250 g/ha): 0
- Cocklebur plant response rating (cocklebur; [7]): 0
- Plant response rating, Soybean (soybean; [2]): 3
- Soybean plant response rating (soybean; [3]): 3
- Plant response rating, Soybean (soybean; [4]): 3
- Soybean plant response rating (soybean; [5]): 0
- Soybean plant response rating (soybean; [6]): 0
- Soybean plant response rating (soybean; [7]): 0
- Corn plant response rating (corn; [1]): 0
- Plant response rating, Corn (corn; [2]): 0
- Corn plant response rating (corn; [3]): 2
- Plant response rating, Corn (corn; [4]): 3
- Corn plant response rating (corn; [5]): 0
- Corn plant response rating (corn; [6]): 0
- Corn plant response rating (0 to 10 scale) (corn; Preemergence, Rate 250 g/ha): 0
- Corn plant response rating (corn; [7]): 0
- Crabgrass plant response rating (crabgrass; [1]): 2
- Plant response rating, Crabgrass (crabgrass; [2]): 3
- Crabgrass plant response rating (crabgrass; [3]): 8
- Plant response rating, Crabgrass (crabgrass; [4]): 9
- Crabgrass plant response rating (crabgrass; [5]): 9
- Crabgrass plant response rating (crabgrass; [6]): 9
- Crabgrass plant response rating (crabgrass; [7]): 10
- Nutsedge plant response rating (purple nutsedge; [1]): 0
- Plant response rating, Nutsedge (purple nutsedge; [2]): 0
- Nutsedge plant response rating (purple nutsedge; [3]): 0
- Plant response rating, Nutsedge (purple nutsedge; [4]): 0
- Nutsedge plant response rating (purple nutsedge; [5]): 0
- Nutsedge plant response rating (purple nutsedge; [6]): 0
- Nutsedge plant response rating (purple nutsedge; [7]): 2
- Plant response rating, Redroot pigweed (pigweed; [2]): 0
- Redroot pigweed plant response rating (pigweed; [3]): 0
- Plant response rating, Redroot pigweed (pigweed; [4]): 2
- Redroot pigweed plant response rating (pigweed; [5]): 0
- Redroot pigweed plant response rating (pigweed; [6]): 8
- Redroot pigweed plant response rating (pigweed; [7]): 10
- Plant response rating, Barnyardgrass (0 to 10 scale, 0 is no effect, 10 is complete control) (bamyardgrass; [8]): 0
- Barnyardgrass plant response rating (0 to 10 scale, 0 is no effect, 10 is complete control) (bamyardgrass; [9]): 0
- Barnyardgrass plant response rating (bamyardgrass; [10]): 0
- Barnyardgrass plant response rating (bamyardgrass; [11]): 0
- Rape plant response rating (rape; [1]): 0
- Plant response rating, Rape (rape; [2]): 0
- Rape plant response rating (rape; [3]): 0
- Plant response rating, Rape (rape; [4]): 0
- Rape plant response rating (rape; [5]): 0
- Rape plant response rating (rape; [6]): 0
- Rape plant response rating (rape; [7]): 4
- Plant response rating, Velvetleaf (velvetleaf; [2]): 0
- Velvetleaf plant response rating (velvetleaf; [3]): 0
- Plant response rating, Velvetleaf (velvetleaf; [4]): 1
- Velvetleaf plant response rating (velvetleaf; [5]): 0
- Velvetleaf plant response rating (velvetleaf; [6]): 0
- Velvetleaf plant response rating (velvetleaf; [7]): 7
- Plant response rating, Wild oats (wild oat; [2]): 0
- Wild oats plant response rating (wild oat; [3]): 0
- Plant response rating, Wild oats (wild oat; [4]): 0
- Wild oats plant response rating (wild oat; [5]): 0
- Wild oats plant response rating (wild oat; [6]): 3
- Wild oats plant response rating (wild oat; [7]): 10
- Plant response rating, Rice (0 to 10 scale, 0 is no effect, 10 is complete control) (rice; [8]): 0
- Rice plant response rating (0 to 10 scale, 0 is no effect, 10 is complete control) (rice; [9]): 0
- Rice plant response rating (rice; [10]): 0
- Rice plant response rating (rice; [11]): 0
- Plant response rating, Sugarbeets (sugar beet; [2]): 0
- Sugarbeets plant response rating (sugar beet; [3]): 0
- Plant response rating, Sugarbeets (sugar beet; [4]): 0
- Sugarbeets plant response rating (sugar beet; [5]): 0
- Sugarbeets plant response rating (sugar beet; [6]): 0
- Sugarbeets plant response rating (sugar beet; [7]): 8
- Plant response rating, Ducksalad (0 to 10 scale, 0 is no effect, 10 is complete control) (duck salad; [8]): 0
- Ducksalad plant response rating (0 to 10 scale, 0 is no effect, 10 is complete control) (duck salad; [9]): 0
- Ducksalad plant response rating (duck salad; [10]): 0
- Ducksalad plant response rating (duck salad; [11]): 0

— US6737383B1, “Herbicidal oxadiazolidines” (priority 1999, dated 2004)
